Measured values taken from patent US20070069122A1, “In situ polypeptide identification” (priority 2005, published 2007).

Tests used:
[1] = test system: kidney proximal tubules; experiment: Histology of kidney after gentamicin treatment (model system for nephrotoxicity); assay type: in vivo, rat; details: rats, 100 mg/kg/day sc for 7 days
Excerpt: Permission for animal studies was obtained from the local regulatory agencies, and all study protocols were in compliance with animal welfare guidelines. Male HanBrl: Wistar rats of approximately 12 weeks of age (300g±20%) were obtained from BRL, Füllinsdorf, Switzerland. The animals were housed individually in Macrolone cages with wood shavings as bedding at […] and 50% relative humidity in a 12-hr light/dark rhythm with free access to water and Kliba 3433 rodent pellets (Provimi Kliba AG, Kaiseraugst, Switzerland).
(§1) Animals were treated for 7 consecutive days with 100 mg/kg/day Gentamicin (dissolved in saline) or vehicle by subcutaneous (sc) injections and sacrificed 24 hours after the last application by CO2 inhalation. Immediately preceding sacrifice, terminal blood samples for clinical chemistry investigations were collected from the retroorbital sinus under isofluoran anesthesia.
Representative kidney samples were fixed in 10% neutral buffered formalin. All samples were processed using routine procedures and embedded in Paraplast. Tissue sections approximately 2-3 microns were cut and stained with hematoxylin-eosin (HE) or periodic acid-Schiff (PAS).
Marked degeneration/regeneration of proximal tubules (grade 4) was clearly observed in rats treated with 100 mg/kg/day gentamicin for 7 days. This finding was correlated to the analysis of rat kidney thin sections by MALDI IMS. […]

[2] = test system: rat kidney cortex; experiment: MALDI IMS profiling of rat kidney cortex thin sections, gentamicin-treated versus control; assay type: in vivo
Method: as §1
Marked degeneration/regeneration of proximal tubules (grade 4) was clearly observed in rats treated with 100 mg/kg/day gentamicin for 7 days. This finding was correlated to the analysis of rat kidney thin sections by MALDI IMS. 9 control and 9 gentamicin-treated rat kidneys thin sections (3 animals, 3 sections from each animal; the thin section was spotted with matrix as shown in FIG. 1) were subjected to mass spectrometric analysis as described below.
Kidneys were dissected from rats, snap frozen on dry ice and stored at −80° C. prior to further processing. 12 μm sections were obtained on a cryostat (LEICA CM 3000, Leica Microsystems) at −18° C. and deposited on ITO-coated conductive glass slides (Indium Tin Oxide 50×75×0.9 mm, Delta Technologies). Sample preparation were performed according to published procedure (Schwartz, S. A., Reyzer, M. L., and Caprioli, R. M. (2003) Journal of Mass Spectrometry 38, 699-708). Tissue sections were then fixed by immersion in ethanol bathes and let to dry 30 minutes under vacuum. During all the process the sections were stored as much as possible under vacuum. Deposition of MALDI matrix was done manually with a pipette. 200 nL of freshly prepared sinapinic acid solution (3,5-dimethoxy-4-hydroxycinnaminic acid, Fluka, 20 mg/ml in water/acetonitrile 1:1, 0.1% trifluoroacetic acid) was deposited onto the tissue. After crystallization, an additional 200 nL was layered onto the spots and the matrix was let to dry at room temperature. The sample was then kept under vacuum if not analyzed immediately by mass spectrometry.
MALDI MS spectra were acquired using an UltraFlex MALDI ToF/ToF instrument (Bruker Daltonics) with a standard 337-nm N2 laser operating at 50Hz and a laser spot size of 50 μm. The instrument was operated in positive linear mode (2 kDa-30 kDa) at constant laser power. A total of 8 times 100 laser shots were averaged for each manually deposited matrix droplets. Spectra were externally calibrated using a protein calibration standard solution (Insulin, Ubiquitin I, Cytochrom C, Myoglobin; Bruker Daltonics). Internal calibration was performed post-acquisition using redundant known peaks from the spectra (Hemoglobin α-chain, Thymosin β-4, Cytochrome c oxidase polypeptide VIIa L, Ubiquitin, Cytochrome c oxidase polypeptide VIb).
The spectra were processed using a combination of tools available commercially and developed in-house at Vanderbilt University. Baseline subtraction, normalization, peak detection, and spectral alignment were performed using the ProTS-Data software (Efeckta Technologies, Inc.) All spectra were baseline corrected to remove contributions of chemical noise to the signal. This step was performed by locally estimating the baseline and subtracting the […] from the raw data. For the present data set the software was set to consider a window width 10 times that of the peak width to account for the differences in resolution for different m/z regions. The baseline corrected spectra were normalized in intensity by scaling the spectra to a common total ion current. Peak detection was performed using ProTS-Data and a list of 13 common peaks was selected to be internal alignment points using a quadratic calibration function. The criterion used to select common peaks were that the peak must occur in greater than 80% of the spectra to be aligned, must not have interfering or overlapping peaks, and the peaks must have a standard deviation of the observed centroid value less that 7 mass units. […]

[3] = test system: transthyretin (prealbumin); experiment: Western blot of kidney cortex cytosolic fraction and HPLC fraction D10; assay type: in vivo, rat; details: kidney cortex cytosolic fraction
Method: Tissue extracts from control and treated rat kidneys were obtained by homogenization of a piece of cortex in a 10 mM Tris-HCl buffer pH 7.6 containing 250 mM sucrose and protease inhibitors (Roche Complete). The tissue extract was subjected to three successive centrifugation steps at 4° C. (10 min at 680 g; 10 min at 10 000 g; 1 h at 100 000 g) whereas the pellets were discarded and the supernatant of the last centrifugation step was kept as the kidney cytosolic fraction.
1 μl of the kidney cytosolic fraction and of the relevant HPLC fraction were subjected to electrophoresis using a 4-20% Tris-Glycine SDS-PAGE gel (Invitrogen) and the proteins were subsequently transferred to a PVDF membrane. Blots were blocked in 5% milk in PBS containing 0.1% Tween 20 for 1 h and incubated overnight at room temperature with an […] (Abcam) in PBS containing 5% milk and 0.1% Tween 20. After washing with PBS containing 0.1% Tween 20, blots were incubated for 1 h with horseradish peroxidase conjugated with an anti-sheep IgG antibody (Silenus Laboratories). Antibody binding was detected using ECL western blotting reagents (Amersham).

[4] = test system: transthyretin; experiment: Immunohistochemical examination of kidney; assay type: in vivo; details: treated versus control rat, whole kidney sections
Excerpt: FIG. 8: Immunohistochemical examination of kidney from control and gentamicin-treated rat. […] High magnification photomicrographs from the cortex (C, E) vs. the medulla (D, F) reveal specific localization of TTR immunoreactivity in the cortex tubules of the treated kidney. Transthyretin immunoreactivity is visualized by the grey precipitate of diaminobenzidine-Ni counterstained with cresyl violet.

[5] = kidney cortex, 100 mg/kg/day sc 7 days

Gentamicin
degeneration/regeneration of proximal tubules, grade [1]: 4 | presence of species 12959 (transthyretin S28-Q146) in mass spectrum ([2]; in situ and in HPLC fraction D10): only present in the mass spectrum of the gentamicin-treated sample | doubly-charged species at m/z 6480, behaviour in treated versus control cortex ([2]; kidney cortex): showed a similar behavior | Average S/N (gent), peak m/z 3343.714 [2, 5]: 2 | Average S/N (gent), peak m/z 4010.498 [2, 5]: 1 | Average S/N (gent), peak m/z 4107.083 [2, 5]: 5 | Average S/N (gent), peak m/z 4141.907 [2, 5]: 1 | Average S/N (gent), peak m/z 4181.504 [2, 5]: 0 | Average S/N (gent), peak m/z 4497.792 [2, 5]: 0 | Average S/N (gent), peak m/z 5096.886 [2, 5]: 5 | Average S/N (gent), peak m/z 5222.249 [2, 5]: 0 | Average S/N (gent), peak m/z 5301.852 [2, 5]: 0 | Average S/N (gent), peak m/z 5355.669 [2, 5]: 1 | Average S/N (gent), peak m/z 5478.957 [2, 5]: 2 | Average S/N (gent), peak m/z 6080.035 [2, 5]: 1 | Average S/N (gent), peak m/z 6498.996 [2, 5]: 0 | Average S/N (gent), peak m/z 6912.956 [2, 5]: 6 | Average S/N (gent), peak m/z 6938.997 [2, 5]: 1 | Average S/N (gent), peak m/z 7083.364 [2, 5]: 6 | Average S/N (gent), peak m/z 12959.23 [2, 5]: 5 | Average S/N (gent), peak m/z 13004.71 [2, 5]: 0 | Average S/N (gent), peak m/z 17100.68 [2, 5]: 0 | Average S/N (gent), peak m/z 17176.83 [2, 5]: 0 | transthyretin abundance in kidney by Western blot, gentamicin-treated versus control rats [3]: significantly more abundant | transthyretin immunoreactivity in kidney cortex [4]: high levels of transthyretin immunoreactivity
